Results from patent publication US20190216712A1, “Hair dye composition, preparation method, and application method thereof” (SHANGHAI CLINICAL ENGINE TECHNOLOGY DEVELOPMENT CO., LTD., priority 2017, published 2019).
Read-outs that look alike come from different tables or passages of the source.

System: human epithelial-derived cells (293T)
Test: CCK-8 test of killing ability to cells (Embodiment 14)
Assay type: cell-based
Procedure: According to embodiments 1-3, water-soluble pigment solubilizing carrier dye was prepared, while cationic carrier ([…]) was used. First, human epithelial-derived cells (293T) were cultured, which was divided into three groups corresponding to a polyethyleneimine-co-isopropylacrylamide (water-soluble pigment solubilizing carrier) group, a polyethyleneimine-co-isopropylacrylamide (a water-soluble pigment solubilizing carrier) dye, and a commercially available cationic carrier group; the cells were cultured with commercially available cell culture medium ([…]) for 24 hours to obtain cells in the logarithmic growth phase; at this time, the same concentration gradient of polyethyleneimine-co-isopropylacrylamide (water-soluble pigment solubilizing carrier), polyethyleneimine-co-isopropylacrylamide (a water-soluble pigment solubilizing carrier)-pigment, and commercially available cationic carrier were added to the culture dishes of the three groups of cells; after 24 hours of culture, the CCK-8 test kit was used to examine the killing ability of the three groups of systems to the cells.

Compound | damage of cells (293T cells, concentration gradient, 24 hours of culture) | damage of cells
CCCCCCCCCCCCOS(=O)(=O)[O-].[Na+] [commercially available cationic carrier, sodium lauryl sulfate] | cell death was rapid | 
polyethyleneimine-co-isopropylacrylamide |  | hardly damaged
